Experimental data as given in publication PMC6934184, “Selective DNA-PKcs inhibition extends the therapeutic index of localized radiotherapy and chemotherapy” (The Journal of Clinical Investigation, 2019).

Molecular target: T1, AKT2 (PKB beta) (Homo sapiens, UniProt P31751)
T1 construct: purchased Thermo Fisher Scientific (Life Technologies) SelectScreen
Assay: SelectScreen Z'LYTE
Assay type: biochemical
Method in brief: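 Compound tested in SelectScreen activity assays, Z'LYTE for CSF1R, CDK1/cyclin B and MAP2K6 and Adapta for CAMK1. ATP for CAMK1 was listed as 10, and Km app was used for CSF1R. Results are expressed in percent.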

T1 sequence (P31751 whole entry): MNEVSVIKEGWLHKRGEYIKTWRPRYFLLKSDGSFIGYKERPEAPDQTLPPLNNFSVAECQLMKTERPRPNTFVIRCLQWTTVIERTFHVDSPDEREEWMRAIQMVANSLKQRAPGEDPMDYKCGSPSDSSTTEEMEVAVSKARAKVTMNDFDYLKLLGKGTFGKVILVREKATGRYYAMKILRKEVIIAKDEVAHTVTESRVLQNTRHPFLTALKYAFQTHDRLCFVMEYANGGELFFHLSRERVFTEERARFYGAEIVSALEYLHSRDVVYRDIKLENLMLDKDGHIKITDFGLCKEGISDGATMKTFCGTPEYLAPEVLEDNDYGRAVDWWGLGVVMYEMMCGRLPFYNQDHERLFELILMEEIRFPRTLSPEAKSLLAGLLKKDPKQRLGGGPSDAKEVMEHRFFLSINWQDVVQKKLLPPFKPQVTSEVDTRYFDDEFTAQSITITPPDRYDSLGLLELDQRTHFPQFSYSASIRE

CN(C(=O)CN1CCOCC1)c1ccc2sc3c(-c4cccc5c(=O)cc(N6CC7CCC(C6)O7)oc45)cccc3c2c1 [NU5455]
inhibition at 1 µM: 0%
